Assay in all cases: NCI 60 cell line screen
What all share (format): cell-based, human

The subject of one assay is MDA-MB-468. To be noted: for activity at 10 µM: Homo sapiens, MDA-MB-468, Breast Cancer, read-out: Percent growth. In a few lines:
(§1)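 Read-out was SRB staining of TCA-fixed cells at 515 nm, with growth computed against time-zero (Tz) and untreated control plates; TGI was taken where Ti = Tz. Drugs were tested at five concentrations up to 10 µM for 48 h at 37 °C, added 24 h after plating in RPMI 1640/5% FBS.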

In the next assay the test system is NCI-H460. As to conditions: for activity at 10 µM: Homo sapiens, NCI-H460, Non-Small Cell Lung Cancer, read-out: Percent growth. The gist of the method: (§2)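 Human tumour lines were grown in RPMI 1640 with 5% FBS and 2 mM L-glutamine, then exposed 48 h at 37 °C to five concentrations (max 10 µM) after 24 h pre-incubation. Growth was measured by sulforhodamine B protein staining at 515 nm relative to time-zero and untreated controls.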

The next assay has as its system SR. As to conditions: for activity at 10 µM: Homo sapiens, Leukemia, read-out: Percent growth; for percent inhibition: NCI-60 heat map analysis. In a few lines:
as §1

The subject of another assay is SF-295. As to conditions: for activity at 10 µM: Homo sapiens, SF-295, CNS-Cancer, read-out: Percent growth. The gist of the method:
as §2

For a further assay, the system named is HT29. As to conditions: for activity at 10 µM: Homo sapiens, HT-29, HT29, Colon Cancer, read-out: Percent growth. The gist of the method:
as §2

Another assay relates to NCI-H226. To be noted: for activity at 10 µM: Homo sapiens, NCI-H226, Non-Small Cell Lung Cancer, read-out: Percent growth; for percent inhibition: NCI-H226, NCI-60 heat map analysis. The gist of the method:
as §1

The next assay concerns MOLT-4. As to conditions: for activity at 10 µM: Homo sapiens, MOLT-4, Leukemia, read-out: Percent growth. In a few lines: as §1
The test system of the next assay is NCI-H23. To be noted: for activity at 10 µM: Homo sapiens, NCI-H23, Non-Small Cell Lung Cancer, read-out: Percent growth. In a few lines:
as §2

For a further assay, the system named is KM12. To be noted: for activity at 10 µM: Homo sapiens, KM12, Colon Cancer, read-out: Percent growth; for percent inhibition: KM12, NCI-60 heat map analysis. The gist of the method: as §1
In the next assay the test system is HOP-92. As to conditions: for activity at 10 µM: Homo sapiens, HOP-92, Non-Small Cell Lung Cancer, read-out: Percent growth; for percent inhibition: HOP-92, NCI-60 heat map analysis. The gist of the method:
as §1

A further assay deals with UO-31. To be noted: for activity at 10 µM: Homo sapiens, UO-31, Renal Cancer, read-out: Percent growth. In a few lines: as §2
Another assay concerns EKVX. To be noted: for activity at 10 µM: Homo sapiens, Non-Small Cell Lung Cancer, read-out: Percent growth. The gist of the method: as §2
The subject of a further assay is U251. As to conditions: for activity at 10 µM: Homo sapiens, U-251, U251, CNS-Cancer, read-out: Percent growth. In a few lines:
as §2

The subject of the next assay is T-47D. As to conditions: for activity at 10 µM: Homo sapiens, T47D, Breast Cancer, read-out: Percent growth; for percent inhibition: NCI-60 heat map analysis. In a few lines:
as §1

In a further assay the test system is K-562. As to conditions: Homo sapiens, K562; K-562, Leukemia; read-out: Percent growth. In a few lines:
as §2

A further assay deals with HCT-15. As to conditions: for activity at 10 µM: Homo sapiens, HCT-15, Colon Cancer, read-out: Percent growth; for percent inhibition: HCT-15, NCI-60 heat map analysis. The gist of the method:
as §2

A further assay deals with CAKI-1. To be noted: for activity at 10 µM: Homo sapiens, CAKI-1, Renal Cancer, read-out: Percent growth. In a few lines: as §2
The subject of another assay is RXF 393. To be noted: for activity at 10 µM: Homo sapiens, RXF 393, Renal Cancer, read-out: Percent growth. In a few lines: as §2
The next assay concerns SNB-75. To be noted: for activity at 10 µM: Homo sapiens, SNB-75, CNS-Cancer, read-out: Percent growth. In a few lines:
as §2

As for `O=S(=O)(NCCCNc1nccc(-n2cnc3ccccc32)n1)c1ccc(Cl)cc1` [12j, N-(3-((4-(1H-benzo [d]imidazol-1-yl)pyrimidin-2-yl)amino)propyl)-4-chloro benzenesulfonamide], the activity at 10 µM in the assay with MDA-MB-468 was found to be 93.8%; in the assay with NCI-H460, 99.8%; with SR, 81.5%; in the assay on SF-295, 97.8%; in the assay with HT29, 104%; in the assay with NCI-H226 it was 83.2%. Moreover, the activity at 10 µM was 82.3% in the assay on MOLT-4; 97.1% with NCI-H23; 92% with KM12; 94.6% in the assay on HOP-92; 87.2% in the assay with UO-31; 91% with EKVX. The activity at 10 µM with U251 worked out at 100%; with T-47D, 65.3%; in the assay on K-562, 79.2%; in the assay with HCT-15 it was 93.1%; with CAKI-1 it was 94.5%; in the assay with RXF 393, 124%. In the assay on SNB-75, the activity at 10 µM was 91.7%.

For `O=S(=O)(NCCCNc1nccc(-n2cnc3ccccc32)n1)c1ccc(C(F)(F)F)cc1` [12l, N-(3-((4-(1H-benzo [d]imidazol-1-yl)pyrimidin-2-yl)amino)propyl)-4-(trifluoromethyl) benzenesulfonamide], the activity at 10 µM in the assay on MDA-MB-468 worked out at 52.7%; in the assay with NCI-H460 it was 79.3%; in the assay with SR, 58%; in the assay on SF-295 it was 69.8%; with HT29 it was 54.6%; in the assay on NCI-H226 it was 57.6%. Also, the activity at 10 µM came out at 38.4% in the assay on MOLT-4; 82.5% with NCI-H23; 51.7% in the assay with KM12; 56% in the assay on HOP-92; 54.4% in the assay on UO-31; 58.1% in the assay on EKVX. In addition, the activity at 10 µM with U251 was determined as 73.2%; with T-47D, 16.8%; with K-562 it was 33.9%; in the assay on HCT-15, 53.8%; in the assay with CAKI-1, 51.4%; in the assay on RXF 393 it was 43.8%. The activity at 10 µM with SNB-75 stood at 65.2%. Also, the percent inhibition result with HT29 (HT29, NCI-60 heat map analysis) is given as “more than 40%”; in the assay on NCI-H226, “around 40%”; in the assay on HOP-92, “around 40%”; with UO-31 (UO-31, NCI-60 heat map analysis), 46%; with T-47D it was 84%; with HCT-15 it was “more than 40%”. Further, the percent inhibition in the assay with CAKI-1 (CAKI-1, NCI-60 heat map analysis) is on record as 49%; with RXF 393 (RXF 393, NCI-60 heat map analysis) it was 57%.

With `O=S(=O)(NCCCNc1nccc(-n2cnc3ccccc32)n1)c1ccc(Br)cc1` [12k, N-(3-((4-(1H-benzo [d]imidazol-1-yl)pyrimidin-2-yl)amino)propyl)-4-bromo benzenesulfonamide], the activity at 10 µM is 70.7% with MDA-MB-468; 94.3% in the assay with NCI-H460; 70.8% with SR; 86.5% in the assay on SF-295; 103% in the assay on HT29; 80.2% in the assay with NCI-H226. Besides, the activity at 10 µM in the assay on MOLT-4 came out at 64.9%; in the assay with NCI-H23 it was 92.8%; with KM12, 68.3%; with HOP-92, 79.3%; in the assay on UO-31 it was 74.3%; in the assay on EKVX, 81.5%. Besides, the activity at 10 µM was 96.6% with U251; 45.3% in the assay on T-47D; 73.5% in the assay with K-562; 83.2% in the assay on HCT-15; 84.5% in the assay on CAKI-1; 111% in the assay on RXF 393. Further, the activity at 10 µM with SNB-75 turned out to be 86.1%. In addition, the results for the percent inhibition in the assay with SR and in the assay on T-47D were 30% and 55%, respectively.

As to `O=S(=O)(NCCNc1nccc(-n2cnc3ccccc32)n1)c1ccc(C(F)(F)F)cc1` [12e, N-(2-((4-(1H-benzo [d]imidazol-1-yl)pyrimidin-2-yl)amino)ethyl)-4-(trifluoromethyl)benzenesulfonamide], the activity at 10 µM with MDA-MB-468 was 26.4%; with NCI-H460, 57.8%; with SR, 35.5%; in the assay with SF-295, 44.7%; in the assay on HT29, 68%; in the assay with NCI-H226 it was 62.7%. For the same compound, the activity at 10 µM with MOLT-4 amounted to 45.2%; with NCI-H23, 54.5%; with KM12, 58.7%; in the assay on HOP-92, 54.5%; in the assay on UO-31, 39.9%; in the assay with EKVX it was 34.7%. For the same compound, the activity at 10 µM with U251 turned out to be 42.4%; in the assay on T-47D it was 22.3%; in the assay on K-562, 40.8%; in the assay on HCT-15, 60.7%; in the assay with CAKI-1, 43.1%; with RXF 393 it was 38.2%. For the same compound, the activity at 10 µM in the assay on SNB-75 is 46.8%. Further, the percent inhibition with MDA-MB-468 (MDA-MB-468, NCI-60 heat map analysis) is on record as 74%; in the assay on NCI-H460 (NCI-H460, NCI-60 heat map analysis) it was “around 40%”; with SR, 65%; in the assay with SF-295 (SF-295, NCI-60 heat map analysis), “more than 50%”; in the assay on MOLT-4 (MOLT-4, NCI-60 heat map analysis) it was 55%; in the assay on NCI-H23 (NCI-H23, NCI-60 heat map analysis) it was “around 40%”. For the same compound, the percent inhibition entry in the assay with KM12 is recorded as “around 40%”; in the assay with HOP-92, “around 40%”; with U251 (U251, NCI-60 heat map analysis), “more than 50%”; in the assay with T-47D, 77%; in the assay on HCT-15, “around 40%”; in the assay with SNB-75 (SNB-75, NCI-60 heat map analysis), “more than 50%”.

As for `O=S(=O)(NCCNc1nccc(-n2cnc3ccccc32)n1)c1ccc(Cl)cc1` [12c, N-(2-((4-(1H-benzo [d]imidazol-1-yl)pyrimidin-2-yl)amino)ethyl)-4-chlorobenzenesulfonamide], the activity at 10 µM with MDA-MB-468 was found to be 101%; with NCI-H460 it was 103%; in the assay with SR, 96.3%; in the assay on SF-295 it was 96.7%; with HT29, 103%; in the assay on NCI-H226 it was 91.1%. Also, the activity at 10 µM stood at 103% in the assay with MOLT-4; 101% in the assay on NCI-H23; 97.1% in the assay on KM12; 90.2% in the assay with HOP-92; 81.6% in the assay with UO-31; 92.2% in the assay on EKVX. Besides, the activity at 10 µM in the assay on U251 came out at 102%; with T-47D, 97.1%; with K-562, 97.6%; in the assay on HCT-15, 96.6%; in the assay on CAKI-1 it was 87.4%; in the assay with RXF 393, 117%. Also, in the assay with SNB-75, the activity at 10 µM worked out at 79.4%.

`O=S(=O)(NCCCNc1nccc(-n2cnc3ccccc32)n1)c1ccc(F)cc1` [12i, N-(3-((4-(1H-benzo [d]imidazol-1-yl)pyrimidin-2-yl)amino)propyl)-4-fluorobenzenesulfonamide]: the activity at 10 µM with MDA-MB-468 came out at 50.2%; in the assay on NCI-H460 it was 79.7%; with SR, 36.8%; in the assay with SF-295, 70.6%; with HT29 it was 92.8%; with NCI-H226 it was 64.1%. In addition, the activity at 10 µM in the assay on MOLT-4 amounted to 33.2%; in the assay with NCI-H23, 70.4%; in the assay with KM12, 48.9%; in the assay with HOP-92, 87.9%; in the assay with UO-31 it was 59.3%; in the assay with EKVX, 61.2%. For the same compound, the activity at 10 µM in the assay with U251 came out at 93.8%; in the assay on T-47D, 25.5%; in the assay on K-562, 37.2%; in the assay with HCT-15, 82.8%; with CAKI-1 it was 71%; with RXF 393, 163%. Further, the activity at 10 µM in the assay with SNB-75 came to 82.5%. In addition, the percent inhibition result is on record as “around 30%” in the assay on NCI-H226, “around 50%” with KM12, “around 30%” in the assay on EKVX (NCI-60 heat map analysis) and 75% with T-47D.

The record behind these values is PMC8508980, “Design, Synthesis and Anticancer Profile of New 4-(1H-benzo[d]imidazol-1-yl)pyrimidin-2-amine-Linked Sulfonamide Derivatives with V600EBRAF Inhibitory Effect” (International Journal of Molecular Sciences, 2021).
